Experiments:
Assay type in all cases: physicochemical
[1] = Solubility in pure water (water added progressively until the sample completely dissolved); conditions: 25° C. (room temperature)
Description: Take 5 mg of the crystalline form of Afatinib dimaleate in the prior art prepared in preparation example 1 and the crystalline Form N of Afatinib monomaleate prepared in example 1 as the sample respectively, pure water was added into each sample progressively at 25° C. until the sample completely dissolved, then calculate the solubility of the sample according to the weight of the sample and water.

[2] = Dynamic vapour sorption (DVS) isothermal adsorption; conditions: relative humidity 10%-80%
Description: Dynamic vapour sorption (DVS) data is collected using TA Instruments Q5000 TGA, the instrument control software is Thermal Advantage and the analytical software is Universal Analysis. Usually, 1-10 mg of the specimen is placed in a platinum pan, weight changes of the specimen are recorded by TA software within the process of the relative humidity change from 10% to 80% to 10%. Depending on specific situations, different sorption and desorption procedures may be used. An isothermal adsorption curve can be generated by the procession of software.

[3] = Hygroscopicity of prior-art forms (researches by the present inventors)

CN(C)C/C=C/C(=O)Nc1cc2c(Nc3ccc(F)c(Cl)c3)ncnc2cc1O[C@H]1CCOC1 [Afatinib dimaleate]
solubility ([1]; listed as crystalline form of Afatinib dimaleate in the prior art): 7.5 mg/mL
weight change of the salt within the relative humidity range of 10%-80% ([2]; listed as Preparation Example 1): 2.6%

CN(C)C/C=C/C(=O)Nc1cc2c(Nc3ccc(F)c(Cl)c3)ncnc2cc1O[C@H]1CCOC1 [Afatinib monomaleate]
solubility ([1]; listed as crystalline Form N of Afatinib monomaleate): 126.9 mg/mL
weight change of the salt within the relative humidity range of 10%-80% ([2]; listed as Example 1): 2.1%

CN(C)C/C=C/C(=O)Nc1cc2c(Nc3ccc(F)c(Cl)c3)ncnc2cc1O[C@H]1CCOC1 [Form B of Afatinib dimaleate, Afatinib dimaleate]
hygroscopicity [3]: serious hygroscopicity issues

— patent publication US9708301B2, “Crystalline forms of afatinib monomaleate, preparation methods and pharmaceutical compositions thereof” (priority 2015, dated 2017)
